Measurements reported in PMC11249646, “Small-Molecule Disruptors of the Interaction between Calcium- and Integrin-Binding Protein 1 and Integrin αIIbβ3 as Novel Antiplatelet Agents” (ACS Pharmacology & Translational Science, 2024).
Read-outs that look alike come from different tables or passages of the source.

What was measured:
Assay type in all cases: binding
[1] = molecular target: T1, GST-CIB1 : F-scrambled peptide (Homo sapiens, UniProt Q99828); experiment: FP scrambled-peptide counter screen, 1536-well format; conditions: for COUNTERSCREEN Confirm?: YES/NO call
T1 construct: made in house; host or cells: BL-21 plus RIL cells (E. coli)
T1 sequence (Q99828 1-191): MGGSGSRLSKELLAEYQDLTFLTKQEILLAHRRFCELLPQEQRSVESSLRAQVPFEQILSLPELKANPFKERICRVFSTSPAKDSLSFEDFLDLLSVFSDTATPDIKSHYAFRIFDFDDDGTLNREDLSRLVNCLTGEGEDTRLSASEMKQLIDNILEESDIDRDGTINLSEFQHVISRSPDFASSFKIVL

[2] = molecular target: T1, GST-CIB1 : F-scrambled peptide; experiment: FP scrambled-peptide counter screen, 384-well format; conditions: F-scrambled peptide; for 384-well COUNTERSCREEN Confirm?: *: Curve in opposite direction; for IC50: read-out: 384-well COUNTERSCREEN IC50
[3] = molecular target: T2, CIB1 and αIIb interaction (GST-CIB1 : F-αIIb peptide) (Homo sapiens, UniProt Q99828); experiment: FP assay, 384-well format (screen); set-up: 384-well SCREEN Efficacy (%): concentration or dose not given beside the values; conditions: F-αIIb peptide; for 384-well SCREEN Confirm?: YES/NO; for IC50: read-out: 384-well SCREEN IC50
T2 construct: made in house; host or cells: BL-21 plus RIL cells (E. coli)
T2 sequence (Q99828 1-191): T1 sequence (Q99828 1-191)

[4] = molecular target: T3, CIB1 and αIIb interaction (CIB1-GST : F-αIIb peptide) (Homo sapiens, UniProt Q99828); experiment: FP assay, 1536-well qHTS format (primary and confirmatory screen); conditions: for CONFIRMATORY SCREEN Confirm?: YES/NO call; for CONFIRMATORY SCREEN Efficacy (%) / Efficacy (%): negative = inhibition
T3 construct: made in house; host or cells: BL-21 plus RIL cells (E. coli)
T3 sequence (Q99828 1-191): T1 sequence (Q99828 1-191)

[5] = scrambled-peptide counterscreen
[6] = scrambled-peptide counterscreen, qHTS curve class
[7] = confirmatory screen, qHTS curve class, negative sign = inhibitory curve
[8] = confirmatory screen, read-out: CONFIRMATORY SCREEN IC50
[9] = qHTS primary screen hits, Table S2
[10] = qHTS primary screen hits, Table S2, negative sign = inhibitory curve, several classes where COUNT > 1
[11] = qHTS primary screen hits, Table S2, read-out: IC50
[12] = scrambled-peptide counterscreen, read-out: COUNTERSCREEN IC50
[13] = qHTS FP screen hits, Table S2, one class per curve where COUNT > 1, negative sign = inhibitory curve
[14] = qHTS FP screen hits, Table S2, read-out: IC50
[15] = qHTS primary screen hits, Table S2, negative sign = inhibitory curve

Compound | COUNTERSCREEN Efficacy (%) [1, 5] [%] | COUNTERSCREEN Confirm? [1, 5] | COUNTERSCREEN Curve Class [1, 6] | 384-well COUNTERSCREEN Efficacy (%) [2] [%] | 384-well COUNTERSCREEN Confirm? [2] | IC50 [2] [µM] | 384-well SCREEN Efficacy (%) [3] [%] | 384-well SCREEN Confirm? [3] | IC50 [3] [µM] | CONFIRMATORY SCREEN Confirm? ([4]; confirmatory screen) | CONFIRMATORY SCREEN Curve Class [4, 7] | CONFIRMATORY SCREEN Efficacy (%) ([4]; confirmatory screen) | IC50 [4, 8] [µM] | Efficacy (%) [4, 9] [%] | IC50 [4, 11] [µM] | other results
CC(=O)N1CCN(c2ccc(OCc3nn(C)c(C)c3-c3cccc4c(CCCOc5cccc6ccccc56)c(C(=O)O)n(Cc5cccnc5)c34)cc2)CC1 [NCGC00347174-02] | -33 | YES | 4 | 15 | YES | > 120 | 52 | YES | 28.2 | YES | -2.2 | -77 | 22.4 | -31 | 34.1 | Curve Class [4, 10]: -2.4
Cc1ccc(C)n1-c1cccc(C(=O)O)c1.O=C(O)C(F)(F)F [NCGC00060597-02] | -11 | YES | 4 | 24 | YES | > 120 | 30 | YES | 17.7 | YES | -1.2 | -42 | 8.9 |  |  | 
CCc1oc2ccccc2c1C(=O)c1cc(Br)c(O)c(Br)c1 [NCGC00013895-08] | 52 | YES |  | 60 | YES | 12.6 | 39 | YES | 25.1 | YES | -1.2 | -66 | 22.4 |  |  | IC50 [1, 12]: 20 µM
O=C(Nc1nc(-c2ccccc2)cs1)c1ccncc1NS(=O)(=O)c1ccccc1Cl.O=C(O)C(F)(F)F [NCGC00344943-01] | 25 | YES | 4 | 31 | YES | > 120 | 32 | YES | 15.8 | YES | -1.1 | -98 |  |  |  | 
Cc1ccc(Cl)cc1NC(=O)c1nc[nH]c1C(=O)Nc1nc2ccccc2[nH]1 [NCGC00244259-01] | -15 | YES | 4 | 48 |  | 15.8 | 48 | YES | 11.2 | YES | -1.2 | -28 | 7.9 | -42 | 20 | Curve Class [4, 10]: -2.2
O=C(O)C(F)(F)F.OCc1ccc(-c2ccc3ncnc(NCc4cccs4)c3c2)o1 [NCGC00189276-01] | 0 | YES | 4 | 34 | YES | > 120 | 72 | YES | 12.6 | YES | -1.2 | -62 |  | -57 | 25.1 | Curve Class [4, 10]: -1.2
Cc1ccc(S(=O)(=O)Nc2cnccc2C(=O)Nc2nc(-c3ccc4c(c3)CCCC4)cs2)cc1.O=C(O)C(F)(F)F [NCGC00318953-01] | -23 | YES | 4 | 125 |  | 35.5 | 20 |  | > 120 | YES | -1.2 | -70 |  |  |  | Efficacy (%) ([4]; qHTS FP screen hits, Table S2): -37%; Curve Class [4, 13]: -1.2; IC50 [4, 14]: 20 µM
N#Cc1ccc(N2N=C3c4ccc(C(=O)O)cc4CC[C@@H]3[C@@H]2C2CCCC2)cc1Cl [NCGC00485023-01] | 165 | YES |  | 40 |  |  | -15 |  |  | YES | -2.4 | -30 |  |  |  | Efficacy (%) ([4]; qHTS FP screen hits, Table S2): -32%; Curve Class [4, 13]: -1.2
Cl.O=C1c2c(O)ccc(O)c2C(=O)c2c(NCCNCCO)ccc(NCCNCCO)c21 [NCGC00015693-04] |  |  |  | 75 |  | 5.8 | 80 | YES | 4.1 |  |  |  |  |  |  | Efficacy (%) (counterscreen) ([1]; counterscreen): -125%; Curve Class (counterscreen) ([1]; counterscreen, qHTS curve class, negative sign = inhibitory curve): -1.1; IC50 ([1]; counterscreen, read-out: IC50 [μM] (counterscreen)): 20 µM; Efficacy (%) (confirmatory screen) ([4]; confirmatory screen): -112%; Confirm? (confirmatory screen) ([4]; confirmatory screen, YES/NO): YES; Curve Class (confirmatory screen) [4, 7]: -1.1; IC50 ([4]; confirmatory screen, read-out: IC50 [μM] (confirmatory screen)): 20 µM; Efficacy (%) ([4]; qHTS FP screen hits, Table S2): -85%; IC50 [4, 14]: 25.2 µM
COc1ccc(C(=O)Nc2nc(-c3ccccc3)cs2)c(NS(=O)(=O)c2ccc(C)cc2)c1.O=C(O)C(F)(F)F [NCGC00262390-01] | 92 | YES |  | 102 |  | 31.6 | 24 |  | > 120 | YES | -1.2 | -60 | 11.2 |  |  | IC50 [1, 12]: 70.8 µM; Efficacy (%) ([4]; qHTS FP screen hits, Table S2): -22%; IC50 [4, 14]: 17.8 µM
COc1cccc(-c2csc(NC(=O)c3ccncc3NS(=O)(=O)c3ccc(C)cc3)n2)c1 [NCGC00319006-02] | -41 | YES | -3 | 18 | YES | > 120 | 52 | YES | 20 | YES | -2.2 | -89 | 31.6 |  |  | IC50 [1, 12]: 89.1 µM
NS(=O)(=O)c1cccc2c1c([N+](=O)[O-])cc1nc(O)c([O-])nc12.[Na+] [NCGC00024961-03] |  |  |  | 70 |  | 7.4 | 70 | YES | 9.1 |  |  |  |  | -46 | 5 | Curve Class [4, 15]: -1.2
Cc1nc(N=Nc2cc(S(=O)(=O)O)c3cc([N+](=O)[O-])cc(S(=O)(=O)O)c3c2)c(COP(=O)(O)O)c(C=O)c1O (stereo in doubt) [NCGC00162294-03] |  |  |  | 70 |  |  | 70 | YES |  |  |  |  |  | -64 |  | Curve Class [4, 15]: -1.2
OCCN(CCO)c1nc(N2CCCCC2)c2nc(N(CCO)CCO)nc(N3CCCCC3)c2n1 [NCGC00015385-15] |  |  |  | 200 |  | 22.2 | 175 | YES | 22.2 |  |  |  |  | -172 | 12.7 | Curve Class [4, 15]: -1.1
O=C(O)C1=CC(=C(c2ccc(O)c(C(=O)O)c2)c2ccc(O)c(C(=O)O)c2)C=CC1=O [NCGC00015040-05] |  |  |  | 15 | YES | > 120 | 45 | YES | 4.6 |  |  |  |  | -33 | 3.2 | Curve Class [4, 15]: -1.2
Cc1nc(/N=N\c2cc(S(=O)(=O)O)c3cc([N+](=O)[O-])cc(S(=O)(=O)O)c3c2)c(COP(=O)(O)O)c(C=O)c1O [NCGC00162294-03] |  |  |  |  |  | 3.3 |  |  | 1.7 |  |  |  |  |  | 7.9 | 
CN1CCCN=C1/C=C/c1cccs1 [NCGC00094552-04] |  |  |  |  |  | 4.6 |  |  | > 120 |  |  |  | 50.1 |  | 24.1 | 
